Values quoted from earlier work, collected in patent US11576377B2, “Antimicrobial mixtures of an essential oil derived bactericide and an essential oil derived fungicide which extend the shelf-life of perishable agricultural commodities” (priority 2013, dated 2023).

Tests used:
peaches = details: Mari et al. 2008
cherry stem = details: Tsao and Zhou, 2000

SMILES | Phytotoxic effect on peaches (peaches) | Phytotoxic effect on cherry stem (cherry stem)
C=CCN=C=S [allyl isothiocyanate] | causes discoloration of peaches | –
Cc1ccc(C(C)C)c(O)c1 [thymol] | – | causes browning of cherry stem
